Patent US4647586A, “Pharmaceutical oil-in-water type micro-emulsion” (priority 1984, dated 1987)
Entries after “also recorded” stand apart in the source; their conditions may differ.

What was measured:
[1] = system: Carrageenin-induced paw edema; assay: Carrageenin-induced paw edema in rats [Test 2]; type: in vivo, SD-strain male rats
Procedure: (a) Experimental animals: SD-strain male rats (120-180 g).
A micro-emulsion containing ethyl 4-biphenylylacetate prepared as in Examples 11, 12, 13 and 14 given hereinafter was administered at a dose of 5 ml per kg of the animals. Venolipid® (Morishita Pharmaceutical Co., Ltd.) was used as a vehicle control. As control drugs, a solution or suspension of ethyl 4-biphenylylacetate in physiological saline containing 0.5% Cremophor EL® (Sigma Chemical Company, a solubilizing agent), 0.2% of polyethylene glycol 400 and 10% of dimethyl sulfoxide, a physiological saline solution of sodium 4-biphenylylacetate and a physiological saline solution of Aspirin DL-lysine [Venopirin®, Green Cross Co.] were used. As the vehicle control of the control drugs, the above solvents were used.
A 1% carrageenin solution in physiological saline was injected subcutaneously in an amount of 0.05 ml into the planter surface of the left hind paw of each rat via a 25 gauge needle fitted to a 0.25 ml syringe. One hour after carrageenin injection, the rats were randomized on the basis of the edema volume, and intravenous administration of the drugs and vehicles followed immediately. The volume of the left hind paw was measured by a plethysmometer (Ugo Basile) prior to the injection of the carrageenin solution and at 2, 3, 4, 5 and 6 hours after the carrageenin injection. As the volume of edema, an increase in the paw volume was taken.
The inhibition percents were calculated in accordance with the same calculation formula as in Test 1.

[2] = system: Adjuvant-induced polyarthritis; assay: Adjuvant-induced polyarthritis in rats, adjuvant-injected paw [Test 2]; type: in vivo, SD-strain female rats
Procedure: (a) Experimental animals: SD-strain famale rats 140-180g).
(§1) (b) Test drugs: The same as in A-1 [Test 2].
Rats were anesthetized with ether inhalation, and 0.6 mg of Mycobacterium butyricum suspended in 0.1 ml of white paraffin oil was immediately injected intradermally into the planter surface of the left hind paw of each rat via a 27 gauge needle fitted to a 0.5 ml syringe (day 0). On the 14th day after the adjuvant injection, arthritis-established rats selected by development of secondary lesions were used. Volumes of both hind paws in arthritis-established rats were measured by a plethysmometer (UGO BASILE), and the rats were randomized on the basis of the edema volume in the adjuvant-injected paw. Once daily, beginning on the 14th day up to the 18th day, drugs and vehicles were administered intravenously. Measurements of both paw volumes were performed every day from the 15th day up to the 18th day, and on the 21st day and the 24th day. The inhibition percent were calculated in accordance with the calculation formula as in [Test 1] of A-1.

[3] = system: brewer's yeast-induced fever; assay: Effects on body temperature in pyretic rats (antipyretic activity); type: in vivo, SD-strain male rats; settings: iv, 17 h, read-out: ED50 (dose reducing body temperature by at least 1.5° C. in 50% of the rats)
Procedure: (a) Experimental animals SD-strain male rats (120-185 g).
as §1
Male Sprague-Dawley rats, weighing 120-185 g, were injected subcutaneously in the nape of the neck with 2 ml of a 20% suspension of dried brewers yeast in physiological saline. Drugs and vehicles were administered intravenously 17 hours after treatment of yeast suspension. Rectal temperature was recorded with a thermistor type thermometer (Natsume Seisakusho, BMA-77 Type) just prior to drug administration and at 1/2, 1, 2 and 4 hours after drug administration.

[4] = Toxicity test, single tail vein administration, 3 days observation; type: in vivo, Charles River-strain SD male rats; settings: rat, in vivo, iv; read-out: Doses with no change in general symptoms and autopsy
Procedure: (§2) Charles River-strain SD male rats (6 weeks old; body weight 160-170 g), 5 per group, were used. […] The doses were 50, 100, 200 and 400 mg/kg. As a control, an aqueous solution of sodium 4-biphenylylacetate was administered.

[5] = system: Charles River-strain SD male rats; assay: as above; type: in vivo
Procedure: as §2

[6] = Distribution to the tissue; settings: 10 mg/kg tail vein, as 4-biphenylylacetic acid
Procedure: (a) Experimental animals: Wistar-strain male rats (body weight 60-220 g), 6 per group.
The rats were periodically killed, and the major organs were extracted. The concentration of the drug in the tissues were measured by the conventional HPLC method.

O=C([O-])Cc1ccc(-c2ccccc2)cc1.[Na+]
Inhibition (%) ([1]; 1.25 mg/kg i.v. as 4-biphenylylacetic acid, 2 h after carrageenin): 6.6% | Inhibition (%) ([1]; 1.25 mg/kg i.v. as 4-biphenylylacetic acid, 3 h after carrageenin): 0% | Inhibition (%) ([1]; 1.25 mg/kg i.v. as 4-biphenylylacetic acid, 4 h after carrageenin): 8.5% | Inhibition (%) ([1]; 1.25 mg/kg i.v. as 4-biphenylylacetic acid, 5 h after carrageenin): 5.2% | Inhibition (%) ([1]; 1.25 mg/kg i.v. as 4-biphenylylacetic acid, 6 h after carrageenin): 6.1% | Inhibition (%) ([1]; 2.5 mg/kg i.v. as 4-biphenylylacetic acid, 2 h after carrageenin): 19,7% | Inhibition (%) ([1]; 2.5 mg/kg i.v. as 4-biphenylylacetic acid, 3 h after carrageenin): 11.7% | Inhibition (%) ([1]; 2.5 mg/kg i.v. as 4-biphenylylacetic acid, 4 h after carrageenin): 18.6% | Inhibition (%) ([1]; 2.5 mg/kg i.v. as 4-biphenylylacetic acid, 5 h after carrageenin): 20.7% | Inhibition (%) ([1]; 2.5 mg/kg i.v. as 4-biphenylylacetic acid, 6 h after carrageenin): 10.2% | Inhibition (%) ([1]; 5.0 mg/kg i.v. as 4-biphenylylacetic acid, 2 h after carrageenin): 9.8% | Inhibition (%) ([1]; 5.0 mg/kg i.v. as 4-biphenylylacetic acid, 3 h after carrageenin): 6.6% | Inhibition (%) ([1]; 5.0 mg/kg i.v. as 4-biphenylylacetic acid, 4 h after carrageenin): 20.3% | Inhibition (%) ([1]; 5.0 mg/kg i.v. as 4-biphenylylacetic acid, 5 h after carrageenin): 19.0% | Inhibition (%) ([1]; 5.0 mg/kg i.v. as 4-biphenylylacetic acid, 6 h after carrageenin): 30.6% | Inhibition (%) ([1]; 10.0 mg/kg i.v. as 4-biphenylylacetic acid, 2 h after carrageenin): 23.0% | Inhibition (%) ([1]; 10.0 mg/kg i.v. as 4-biphenylylacetic acid, 3 h after carrageenin): 28.3% | Inhibition (%) ([1]; 10.0 mg/kg i.v. as 4-biphenylylacetic acid, 4 h after carrageenin): 35.6% | Inhibition (%) ([1]; 10.0 mg/kg i.v. as 4-biphenylylacetic acid, 5 h after carrageenin): 29.3% | Inhibition (%) ([1]; 10.0 mg/kg i.v. as 4-biphenylylacetic acid, 6 h after carrageenin): 30.6% | ED30 ([1]; Rattus norvegicus, iv, read-out: ED30 (dose required to cause a 30% inhibition of edema volume)): 10.5 mg/kg | Inhibition (%) ([2]; 1.25 mg/kg/day i.v. as 4-biphenylylacetic acid, day 15): -1.8% | Inhibition (%) ([2]; 1.25 mg/kg/day i.v. as 4-biphenylylacetic acid, day 16): 1.2% | Inhibition (%) ([2]; 1.25 mg/kg/day i.v. as 4-biphenylylacetic acid, day 17): 7.9% | Inhibition (%) ([2]; 1.25 mg/kg/day i.v. as 4-biphenylylacetic acid, day 18): 3.9% | Inhibition (%) ([2]; 1.25 mg/kg/day i.v. as 4-biphenylylacetic acid, day 21): -7.5% | Inhibition (%) ([2]; 1.25 mg/kg/day i.v. as 4-biphenylylacetic acid, day 24): -14.1% | Inhibition (%) ([2]; 2.5 mg/kg/day i.v. as 4-biphenylylacetic acid, day 15): -4.2% | Inhibition (%) ([2]; 2.5 mg/kg/day i.v. as 4-biphenylylacetic acid, day 16): 1.5% | Inhibition (%) ([2]; 2.5 mg/kg/day i.v. as 4-biphenylylacetic acid, day 17): 1.9% | Inhibition (%) ([2]; 2.5 mg/kg/day i.v. as 4-biphenylylacetic acid, day 18): -3.9% | Inhibition (%) ([2]; 2.5 mg/kg/day i.v. as 4-biphenylylacetic acid, day 21): -15.7% | Inhibition (%) ([2]; 2.5 mg/kg/day i.v. as 4-biphenylylacetic acid, day 24): -29.7% | Inhibition (%) ([2]; 5.0 mg/kg/day i.v. as 4-biphenylylacetic acid, day 15): 7.3% | Inhibition (%) ([2]; 5.0 mg/kg/day i.v. as 4-biphenylylacetic acid, day 16): 12.9% | Inhibition (%) ([2]; 5.0 mg/kg/day i.v. as 4-biphenylylacetic acid, day 17): 17.9% | Inhibition (%) ([2]; 5.0 mg/kg/day i.v. as 4-biphenylylacetic acid, day 18): 15.6% | Inhibition (%) ([2]; 5.0 mg/kg/day i.v. as 4-biphenylylacetic acid, day 21): 9.2% | Inhibition (%) ([2]; 5.0 mg/kg/day i.v. as 4-biphenylylacetic acid, day 24): 2.8% | Inhibition (%) ([2]; 10.0 mg/kg/day i.v. as 4-biphenylylacetic acid, day 15): 8.2% | Inhibition (%) ([2]; 10.0 mg/kg/day i.v. as 4-biphenylylacetic acid, day 16): 9.5% | Inhibition (%) ([2]; 10.0 mg/kg/day i.v. as 4-biphenylylacetic acid, day 17): 17.9% | Inhibition (%) ([2]; 10.0 mg/kg/day i.v. as 4-biphenylylacetic acid, day 18): 16.6% | Inhibition (%) ([2]; 10.0 mg/kg/day i.v. as 4-biphenylylacetic acid, day 21): 1.3% | Inhibition (%) ([2]; 10.0 mg/kg/day i.v. as 4-biphenylylacetic acid, day 24): -0.7% | ED20 ([2]; Rattus norvegicus, iv, read-out: ED20 (dose required to cause a 20% inhibition of adjuvant-injected paw volume)): 14.3 mg/kg | ED50 [3]: 2.6 mg/kg | NOAEL at 72 h [4]: ≥ 50 mg/kg | Findings: autopsy ([5]; 50 mg/kg i.v.): No change | Findings: general symptoms ([5]; 50 mg/kg i.v.): No change | Number of the dead ([5]; 50 mg/kg i.v. as 4-biphenylylacetic acid): 0/5 | Findings: general symptoms (spontaneous motion) ([5]; 100 mg/kg i.v.): motion decreased | Number of the dead ([5]; 100 mg/kg i.v. as 4-biphenylylacetic acid): 0/5 | Findings: general symptoms ([5]; 200 mg/kg i.v.): tarry feces | Number of the dead ([5]; 200 mg/kg i.v. as 4-biphenylylacetic acid): 3/5 | Number of the dead ([5]; 400 mg/kg i.v. as 4-biphenylylacetic acid): 3/5 | Findings: autopsy ([5]; at least 100 mg/kg i.v.): Peptic ulcer occurred; also recorded: intestinal adherence | Findings: general symptoms ([5]; at least 100 mg/kg i.v.): Body weight increase inhibition | Findings: general symptoms ([5]; at least 200 mg/kg i.v.): pallor | Doses at which changes occurred ([5]; rat, in vivo): more than 100 mg/kg | Tissue concentration at 30 seconds after administration [6]: concentrations above those at which they showed a pharmacological activity
